Experimental data published in patent US20170190671A1, “BIS(ARYL)CATECHOL DERIVATIVES AS HERBICIDES” (E I DU PONT DE NEMOURS AND COMPANY, priority 2014, published 2017).

Experiments:
Experiment in all cases: Test D postemergence
Assay type in all cases: in vivo
Details in all cases: scale 0 to 100
[1] = system: deadnettle (henbit deadnettle, Lamium amplexicaule)
Text: (§1) Seeds of plant species selected from bluegrass (annual bluegrass, Poa annua), blackgrass (Alopecurus myosuroides), canarygrass (Phalaris minor), chickweed (common chickweed, Stellaria media), cutleaf geranium (Geranium dissectum), galium (catchweed bedstraw, Galium aparine), downy bromegrass (Bromus tectorum), field poppy (Papaver rhoeas), field violet (Viola arvensis), green foxtail (Setaria viridis), deadnettle (henbit deadnettle, Lamium amplexicaule), Italian ryegrass (Lolium multiflorum), kochia (Kochia scoparia), lambsquarters (Chenopodium album), oilseed rape (Brassica napus), pigweed (Amaranthus retroflexus), chamomile (scentless chamomile, Matricaria inodora), Russian thistle (Salsola kali), speedwell (bird's-eye speedwell, Veronica persica), spring barley (Hordeum vulgare), spring wheat (Triticum aestivum), wild buckwheat (Polygonum convolvulus), wild mustard (Sinapis arvensis), wild oat (Avenafatua), wild radish (Raphanus raphanistrum), windgrass (Apera spica-venti), winter barley (Hordeum vulgare), and winter wheat (Triticum aestivum) were planted into a silt loam soil and treated preemergence with test chemicals formulated in a non-phytotoxic solvent mixture which included a surfactant.
(§2) At the same time, these species were planted in pots containing Redi-Earth® planting medium (Scotts Company, 14111 Scottslawn Road, Marysville, Ohio 43041) comprising spaghnum peat moss, vermiculite, wetting agent and starter nutrients and treated with postemergence applications of the test chemicals formulated in the same manner. Plants ranged in height from 2 to 18 cm (1- to 4-leaf stage). Treated plants and controls were maintained in a controlled growth environment for 14 to 21 days after which time all species were compared to controls and visually evaluated. Plant response ratings, summarized in Table D, are based on a scale of 0 to 100 where 0 is no effect and 100 is complete control. A dash (-) response means no test result.

[2] = system: galium (catchweed bedstraw, Galium aparine)
Text: as §1, §2

[3] = system: lambsquarters (Chenopodium album)
Text: as §1, §2

[4] = system: wild buckwheat (Polygonum convolvulus)
Text: as §1, §2

[5] = system: wild mustard (Sinapis arvensis)
Text: as §1, §2

[6] = system: wild radish (Raphanus raphanistrum)
Text: as §1, §2

[7] = system: windgrass (Apera spica-venti)
Text: as §1, §2

[8] = system: winter barley (Hordeum vulgare)
Text: as §1, §2

[9] = system: winter wheat (Triticum aestivum)
Text: as §1, §2

Row | Compound | Plant response rating, Deadnettle ([1]; 16 g ai/ha) | Plant response rating, Deadnettle ([1]; 31 g ai/ha) | Plant response rating, Deadnettle ([1]; 62 g ai/ha) | Plant response rating, Deadnettle ([1]; 125 g ai/ha) | Plant response rating, Galium ([2]; 16 g ai/ha) | Plant response rating, Galium ([2]; 31 g ai/ha) | Plant response rating, Galium ([2]; 62 g ai/ha) | Plant response rating, Galium ([2]; 125 g ai/ha) | Plant response rating, Lambsquarters ([3]; 16 g ai/ha) | Plant response rating, Lambsquarters ([3]; 31 g ai/ha) | Plant response rating, Lambsquarters ([3]; 62 g ai/ha) | Plant response rating, Lambsquarters ([3]; 125 g ai/ha) | Plant response rating, Buckwheat, Wild ([4]; 16 g ai/ha) | Plant response rating, Buckwheat, Wild ([4]; 31 g ai/ha) | Plant response rating, Buckwheat, Wild ([4]; 62 g ai/ha) | Plant response rating, Buckwheat, Wild ([4]; 125 g ai/ha) | Plant response rating, Mustard, Wild ([5]; 16 g ai/ha) | Plant response rating, Mustard, Wild ([5]; 31 g ai/ha) | Plant response rating, Mustard, Wild ([5]; 62 g ai/ha) | Plant response rating, Mustard, Wild ([5]; 125 g ai/ha) | other results
1 | N#Cc1cccc(Oc2ncc(Cl)cn2)c1Oc1ncc(Cl)cn1 [Compound 3, 2,3-bis[(5-chloro-2-pyrimidinyl)oxy]benzonitrile] | 60 | 70 | 70 | 80 | 75 | 95 | 100 | 100 | 70 | 80 | 100 | 100 | 85 | 90 | 95 | 100 | 45 | 60 | 65 | 85 | Plant response rating, Radish, Wild ([6]; 16 g ai/ha): 50; Plant response rating, Radish, Wild ([6]; 31 g ai/ha): 60; Plant response rating, Radish, Wild ([6]; 62 g ai/ha): 75; Plant response rating, Radish, Wild ([6]; 125 g ai/ha): 85; Plant response rating, Windgrass ([7]; 16 g ai/ha): 10; Plant response rating, Windgrass ([7]; 31 g ai/ha): 15; Plant response rating, Windgrass ([7]; 62 g ai/ha): 25; Plant response rating, Windgrass ([7]; 125 g ai/ha): 30; Plant response rating, Barley, Winter ([8]; 16 g ai/ha): 0; Plant response rating, Barley, Winter ([8]; 31 g ai/ha): 5; Plant response rating, Barley, Winter ([8]; 62 g ai/ha): 10; Plant response rating, Barley, Winter ([8]; 125 g ai/ha): 15; Plant response rating, Wheat, Winter ([9]; 16 g ai/ha): 0; Plant response rating, Wheat, Winter ([9]; 31 g ai/ha): 10; Plant response rating, Wheat, Winter ([9]; 62 g ai/ha): 10; Plant response rating, Wheat, Winter ([9]; 125 g ai/ha): 15
2 | Fc1cnc(Oc2c(Br)cccc2Oc2ncc(Cl)cn2)nc1 [Compound 22] | 50 | 50 | 65 | 90 | 70 | 60 | 75 | 85 | 50 | 40 | 75 | 70 | 55 | 65 | 70 | 80 | 35 | 40 | 55 | 75 | Plant response rating, Radish, Wild ([6]; 16 g ai/ha): 25; Plant response rating, Radish, Wild ([6]; 31 g ai/ha): 35; Plant response rating, Radish, Wild ([6]; 62 g ai/ha): 90; Plant response rating, Radish, Wild ([6]; 125 g ai/ha): 90; Plant response rating, Windgrass ([7]; 16 g ai/ha): 5; Plant response rating, Windgrass ([7]; 31 g ai/ha): 10; Plant response rating, Windgrass ([7]; 62 g ai/ha): 25; Plant response rating, Windgrass ([7]; 125 g ai/ha): 35; Plant response rating, Barley, Winter ([8]; 16 g ai/ha): 5; Plant response rating, Barley, Winter ([8]; 31 g ai/ha): 10; Plant response rating, Barley, Winter ([8]; 62 g ai/ha): 10; Plant response rating, Barley, Winter ([8]; 125 g ai/ha): 15; Plant response rating, Wheat, Winter ([9]; 16 g ai/ha): 0; Plant response rating, Wheat, Winter ([9]; 31 g ai/ha): 5; Plant response rating, Wheat, Winter ([9]; 62 g ai/ha): 5; Plant response rating, Wheat, Winter ([9]; 125 g ai/ha): 10
